Laboratory results taken from ChEMBL document CHEMBL4145608, “Dehydrodiconiferyl Alcohol Inhibits Osteoclast Differentiation and Ovariectomy-Induced Bone Loss through Acting as an Estrogen Receptor Agonist” (J Nat Prod, 2018).
Activity calls are given as the source filed them.

Assays:
RAW264.7 [1] = assay: Inhibition of RANKL-induced osteoclast differentiation in mouse RAW264.7 cells assessed as decrease in size of TRAP-positive multinucleated cells at 20 uM after 5 days in presence of ERbeta antagonist PHTPP by microscopy; type: functional, cell-based
RAW264.7 [2] = assay: Inhibition of NF-kappaB/p38 MAPK signaling pathway in mouse RAW264.7 cells assessed as reduction in RANKL-induced MMP-9 mRNA level after 24 hrs by qRT-PCR method; type: cell-based
[3] = target: T1, Estrogen receptor (Mus musculus) (UniProt P19785); assay: Induction of estrogen receptor-mediated AMPKalpha1 activation in mouse RAW264.7 cells at 20 uM in presence of PKA inhibitor H89; type: cell-based
T1 sequence (whole entry): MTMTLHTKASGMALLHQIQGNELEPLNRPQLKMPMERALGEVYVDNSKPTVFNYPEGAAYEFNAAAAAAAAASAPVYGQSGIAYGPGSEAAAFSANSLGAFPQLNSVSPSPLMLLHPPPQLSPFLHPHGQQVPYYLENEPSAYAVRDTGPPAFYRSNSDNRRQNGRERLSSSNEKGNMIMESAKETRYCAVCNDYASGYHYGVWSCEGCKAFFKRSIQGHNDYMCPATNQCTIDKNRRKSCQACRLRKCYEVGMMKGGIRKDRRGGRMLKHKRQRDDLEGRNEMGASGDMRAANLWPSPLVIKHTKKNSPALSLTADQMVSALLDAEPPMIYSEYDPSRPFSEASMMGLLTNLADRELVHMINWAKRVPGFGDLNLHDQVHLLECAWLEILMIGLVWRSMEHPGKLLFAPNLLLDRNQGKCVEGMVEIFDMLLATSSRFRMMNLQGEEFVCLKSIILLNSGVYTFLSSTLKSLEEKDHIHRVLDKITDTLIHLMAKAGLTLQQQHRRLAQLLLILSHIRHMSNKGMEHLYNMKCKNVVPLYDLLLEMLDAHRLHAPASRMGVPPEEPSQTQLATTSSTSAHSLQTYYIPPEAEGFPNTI

COc1cc(C2Oc3c(OC)cc(/C=C/CO)cc3C2CO)ccc1O (stereo not drawn)
active: inhibition (RAW264.7 [1]) | inhibition (RAW264.7 [2]) Dose-dependent effect | Activity [3]
